Assay results: paper PMC7560981 (Medicinal chemistry research : an international journal for …, 2020)
Read-outs that look alike come from different tables or passages of the source.

Legend:
[1] = Stability in mouse liver microsomes; format: in vitro ADME; settings: 1 μM, 37 °C
[2] = molecular target: H4-stimulated PARP1 (human Parp-1) (Homo sapiens, UniProt P09874); test: Inhibition of H4-stimulated PARP1 activation; format: biochemical; settings: human Parp-1, NAD+
[3] = Stability in human liver microsomes; format: in vitro ADME; settings: 1 μM, 37 °C
[4] = system: Nalm-6 isogenic RAD54−/− human leukemia cells; format: cell-based; settings: clonogenic assay
[5] = 90 min, pH 7.4
[6] = Maximum kinetic aqueous solubility; settings: 2% DMSO/phosphate buffer pH 7.4; theoretical maximum 200 μM
cancer cell lines = settings: ref Nieborowska-Skorska et al., 2019, cited from earlier work
[7] = ref Karpova et a., 2019; cited from earlier work
[8] = ref Karpova et a., 2019; cited from earlier work; remark: listed apart in the source
[9] = read-out: H4/PARP Inhibition IC50, histone H4-coated plates
[10] = H4/PARP Inhibition IC50, histone H4-coated plates

Chain of H4-stimulated PARP1 (human Parp-1) (P09874 whole entry): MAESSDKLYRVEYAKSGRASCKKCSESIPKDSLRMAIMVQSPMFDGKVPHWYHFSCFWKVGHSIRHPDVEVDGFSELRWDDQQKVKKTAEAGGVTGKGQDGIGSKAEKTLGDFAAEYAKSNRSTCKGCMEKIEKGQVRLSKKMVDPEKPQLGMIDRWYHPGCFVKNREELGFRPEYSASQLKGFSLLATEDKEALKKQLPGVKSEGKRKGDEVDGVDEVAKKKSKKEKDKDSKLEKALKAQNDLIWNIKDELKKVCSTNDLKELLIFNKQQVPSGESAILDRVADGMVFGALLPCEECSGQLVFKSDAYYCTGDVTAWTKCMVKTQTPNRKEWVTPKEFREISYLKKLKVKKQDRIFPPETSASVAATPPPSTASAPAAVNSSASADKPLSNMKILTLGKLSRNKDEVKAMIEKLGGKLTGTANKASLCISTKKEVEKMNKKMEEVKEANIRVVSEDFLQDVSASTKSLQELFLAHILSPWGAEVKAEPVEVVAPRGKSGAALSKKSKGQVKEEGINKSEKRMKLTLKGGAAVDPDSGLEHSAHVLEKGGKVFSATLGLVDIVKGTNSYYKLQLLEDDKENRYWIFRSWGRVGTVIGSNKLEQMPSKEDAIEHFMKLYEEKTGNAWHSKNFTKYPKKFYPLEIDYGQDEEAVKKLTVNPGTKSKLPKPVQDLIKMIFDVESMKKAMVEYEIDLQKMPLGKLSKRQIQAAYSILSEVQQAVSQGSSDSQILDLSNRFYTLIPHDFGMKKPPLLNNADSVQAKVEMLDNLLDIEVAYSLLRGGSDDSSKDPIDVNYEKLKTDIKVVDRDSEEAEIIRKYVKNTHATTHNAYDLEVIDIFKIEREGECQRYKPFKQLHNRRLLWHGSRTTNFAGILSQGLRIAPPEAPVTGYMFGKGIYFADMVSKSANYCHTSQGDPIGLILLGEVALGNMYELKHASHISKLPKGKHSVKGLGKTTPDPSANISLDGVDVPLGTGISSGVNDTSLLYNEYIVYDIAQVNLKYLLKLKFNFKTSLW

CC(C)(C)OC(=O)N1CC[N+](C)(CC(=O)OC2CCCCCCCCCCC2)CC1.[I-] [Compound 8, 4-(tert-Butoxycarbonyl)-1-(2-(cyclodedecyloxy)-2-oxoethyl)-1-methylpiperazin-1-ium iodide]
Liver Microsomal Stability (t1/2, min) Mouse + NADPH [1]: 4.1 min
IC50 [2, 9]: 55.8 nM
Liver Microsomal Stability (t1/2, min) Human + NADPH [3]: < 2 min

C[N+]1(CC(=O)OC2CCCCCCC2)CCCCC1 [Compound 15, 1-(2-(Cyclooctyloxy)-2-oxoethyl)-1-methylpiperidin-1-ium iodide]
IC50 [2, 10]: 80 nM

C[N+]1(CC(=O)OC2CCCCCCCCCCC2)CCCCCC1 [Compound 3, 1-(2-(Cyclododecyloxy)-2-oxoethyl)-1-methylazepan-1-ium iodide]
IC50 [2, 10]: 54 nM

C[N+]1(CC(=O)OC2CCCCCCCCCCC2)CCNCC1.[I-] [Compound 7, 1-(2-(Cyclododecyloxy)-2-oxoethyl)-1-methylpiperazinium iodide]
anti-clonogenic activity against BRCA-deficient NALM6 leukemia cells (in words) [4]: potent anti-clonogenic activity
IC50 [2, 10]: 466 nM

C[N+]1(CC(=O)OC2CCCCC2)CCCCC1 [Compound 16, 1-(2-(Cyclohexyloxy)-2-oxoethyl)-1-methylpiperidin-1-ium iodide]
IC50 [2, 10]: 77.1 nM

C[N+]1(CC(=O)OC2CCCCCCCCCCC2)CCSCC1.[I-] [Compound 6, 4-(2-(Cyclododecyloxy)-2-oxoethyl)-4-methylthiomorphilin-4-ium iodide]
Liver Microsomal Stability (t1/2, min) Mouse + NADPH [1]: 4 min
IC50 [2, 9]: 156 nM
Liver Microsomal Stability (t1/2, min) Human + NADPH [3]: < 2 min

C[N+]1(CC(=O)OC2CCCCCCCCCCC2)CCOCC1.[I-] [Compound 5, 4-(2-(Cyclododecyloxy)-2-oxoethyl)-4-methylmorpholin-4-ium iodide]
IC50 [2, 10]: 34.5 nM
Max. Aq. Solubility [5]: 200 µM

C[N+]1(CC(=O)OC2CCCC2)CCCCC1.[I-] [Compound 17, 1-(2-(Cyclopentyloxy)-2-oxoethyl)-1-methylpiperidin-1-ium iodide]
IC50 [2, 10]: 57.1 nM
Max. Aq. Solubility [5]: 200 µM

C[N+]1(CC(=O)OC2CCCCCCCCC2)CCCCC1 [Compound 14, 1-(2-(Cyclodecyloxy)-2-oxoethyl)-1-methylpiperidin-1-ium iodide]
IC50 [2, 10]: 53.7 nM

CCC[N+]1(CC(=O)OC2CCCCCCCCCCC2)CCCCC1 [Compound 11, 1-(2-(Cyclododecyloxy)-2-oxoethyl)-1-(1-propyl)piperidin-1-ium iodide]
IC50 [2, 10]: 142 nM

CCCCC[N+]1(CC(=O)OC2CCCCCCCCCCC2)CCCCC1 [Compound 13, 1-(2-(Cyclododecyloxy)-2-oxoethyl)-1-(1-pentyl)piperidin-1-ium iodide]
IC50 [2, 10]: 258 nM

CN(C(=O)CO[N+]1(C)CCCCC1)C1CCCCCCCCCCC1 [Compound 18, 1-(2-(Cyclododecyl(methyl)amino)-2-oxoethoxy)-1-methylpiperidin-1ium iodide]
IC50 [2, 9]: 191 nM

C[N+]1(CC(=O)OC2CCCCCCCCCCC2)CCC(Cc2ccccc2)CC1 (stereo not drawn) [Compound 9, 4-(Benzyl)-1-(2-(cyclododecyloxy)-2-oxoethyl)-1-methylpiperidin-1ium iodide]
IC50 [2, 10]: 61.8 nM

CC[N+]1(CC(=O)OC2CCCCCCCCCCC2)CCCCC1.[I-] [Compound 10, 1-(2-(Cyclododecyloxy)-2-oxoethyl)-1-ethylpiperidin-1-ium iodide]
IC50 [2, 10]: 174 nM
Max. Aq. Solubility [5]: 200 µM

CC1(C)CC[N+](C)(CC(=O)OC2CCCCCCCCCCC2)CC1.[I-] [Compound 4, 1-(2-(Cyclododecyloxy)-2-oxoethyl)-1,4,4-trimethylpiperidin-1-ium iodide]
IC50 [2, 10]: 45.6 nM
Max. Aq. Solubility [6]: 95 µM

C[N+]1(CC(=O)OC2CCCCCCCCCCC2)CCCC1.[I-] [Compound 2]
Liver Microsomal Stability (t1/2, min) Mouse + NADPH [1]: 3.8 min
IC50 [2, 9]: 52.4 nM
Liver Microsomal Stability (t1/2, min) Human + NADPH [3]: < 2 min

CCCC[N+]1(CC(=O)OC2CCCCCCCCCCC2)CCCCC1 [Compound 12, 1-(2-(Cyclododecyloxy)-2-oxoethyl)-1-(1-butyl)piperidin-1-ium iodide]
IC50 [2, 10]: 136 nM

C[N+]1(CC(=O)OC2CCCCCCCCCCC2)CCCCC1.[I-] [Compound 1, 1-(2-(Cyclododecyloxy)-2-oxoethyl)-1-methylpiperidin-1-ium iodide]
effect in combination with olaparib (in words) (cancer cell lines; a number of cell lines): synergistic effect
potency in in vitro proliferation assays compared with olaparib (in words) (cancer cell lines): more potent than olaparib
in vivo half-life (in words) [7]: longer than expected
plasma protein binding (in words) [8]: relatively high
IC50 [2, 10]: 104 nM
